This note sets out measurements from BindingDB's records for doi:10.1021/jm0301033 (Florida A and M University, 2004).

Each structure is given as a SMILES string. Some results are limits rather than exact numbers.

Broadly, the pKi is −log10 of the Ki, conventionally taken in molar units.

One experiment addresses D(3) dopamine receptor (Homo sapiens, UniProt P35462). The experiment can be described thus: Displacement of [3H]7-OH-DPAT from human Dopamine receptor D3. On the technique in general: In a radioligand displacement assay an active substance lowers the binding of a labelled ligand.
For a further experiment, the target named is T1, D(4) dopamine receptor (Homo sapiens, UniProt P21917).
T1 sequence (P21917 whole entry): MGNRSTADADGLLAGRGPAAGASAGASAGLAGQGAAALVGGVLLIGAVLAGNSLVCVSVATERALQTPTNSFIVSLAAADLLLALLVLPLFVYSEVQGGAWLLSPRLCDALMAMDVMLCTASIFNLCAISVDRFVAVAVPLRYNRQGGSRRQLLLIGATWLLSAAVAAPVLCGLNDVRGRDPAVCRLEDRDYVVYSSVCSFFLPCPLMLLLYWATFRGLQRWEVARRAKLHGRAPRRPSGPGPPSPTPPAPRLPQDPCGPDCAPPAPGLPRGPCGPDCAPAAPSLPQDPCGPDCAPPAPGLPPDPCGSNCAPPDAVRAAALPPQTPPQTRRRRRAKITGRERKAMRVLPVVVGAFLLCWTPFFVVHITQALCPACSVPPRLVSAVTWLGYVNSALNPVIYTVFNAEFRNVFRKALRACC
The experiment can be described thus: Displacement of [3H]spiperone from human Dopamine receptor D4.

D(3) dopamine receptor, sequence (P35462 as listed by the source): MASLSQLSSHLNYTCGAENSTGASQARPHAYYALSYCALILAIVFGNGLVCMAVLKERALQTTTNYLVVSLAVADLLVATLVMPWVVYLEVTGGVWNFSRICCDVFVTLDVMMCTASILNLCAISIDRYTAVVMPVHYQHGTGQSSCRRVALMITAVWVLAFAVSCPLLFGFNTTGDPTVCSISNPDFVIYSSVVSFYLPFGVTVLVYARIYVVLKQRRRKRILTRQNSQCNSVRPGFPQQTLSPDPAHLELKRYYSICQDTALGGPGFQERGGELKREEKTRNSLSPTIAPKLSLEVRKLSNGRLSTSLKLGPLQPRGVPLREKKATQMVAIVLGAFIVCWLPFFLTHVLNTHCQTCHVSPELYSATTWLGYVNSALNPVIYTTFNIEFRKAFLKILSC

`O=C(CCCN1CCC(CO)(c2ccc(Cl)cc2)CC1)c1ccc(F)cc1`: the pKi is 6.96 at D(3) dopamine receptor and 7.11 at D(4) dopamine receptor.

For `O=C(CCCN1CCC(c2ccc(Cl)cc2)CC1)c1ccc(F)cc1`, the results for the pKi at D(3) dopamine receptor and at D(4) dopamine receptor were 7.34 and 7.59, respectively. The corresponding values for `O=C(CCCN1CCC(CCO)(c2ccc(Cl)cc2)C1)c1ccc(F)cc1` (configuration not stated) are 7.49 and 6.71.

Consider `O=C(CCC[n+]1ccc(-c2ccc(Cl)cc2)cc1)c1ccc(F)cc1`, for which the pKi on D(3) dopamine receptor and at D(4) dopamine receptor was below 6 each time.

As to `O=C(CCCN1CCC(C(O)c2ccc(Cl)cc2)CC1)c1ccc(F)cc1` (configuration not stated), the pKi at D(3) dopamine receptor stood at 7.11; on D(4) dopamine receptor, 6.91. The like results for `CN(CCCC(=O)c1ccc(F)cc1)CCCC(O)c1ccc(Cl)cc1` (configuration not stated) were, in that order, 6.79 and 6.72. As for `O=C(CCCN1CCC(c2ccc(Cl)cc2)C1)c1ccc(F)cc1` (configuration not stated), the pKi on D(4) dopamine receptor was found to be 7.82.

With `O=C(CCCN1CCC(CO)(c2ccc(Cl)cc2)C1)c1ccc(F)cc1` (configuration not stated), the pKi at D(3) dopamine receptor was found to be 6.78; on D(4) dopamine receptor, 7.62. The like results for `O=C(CCCN1CCC(O)(Cc2ccc(Cl)cc2)CC1)c1ccc(F)cc1` were, in that order, 8.05 and 7.23.
